For data set [1], the target named is T1, rA1 adenosine receptor (Rattus norvegicus, UniProt P25099).
T1 construct: membranes of rat brain (150-200 μg- of protein/assay); from tissue; host or cells: whole brain of male Wistar rats
T1 sequence (P25099 1-326): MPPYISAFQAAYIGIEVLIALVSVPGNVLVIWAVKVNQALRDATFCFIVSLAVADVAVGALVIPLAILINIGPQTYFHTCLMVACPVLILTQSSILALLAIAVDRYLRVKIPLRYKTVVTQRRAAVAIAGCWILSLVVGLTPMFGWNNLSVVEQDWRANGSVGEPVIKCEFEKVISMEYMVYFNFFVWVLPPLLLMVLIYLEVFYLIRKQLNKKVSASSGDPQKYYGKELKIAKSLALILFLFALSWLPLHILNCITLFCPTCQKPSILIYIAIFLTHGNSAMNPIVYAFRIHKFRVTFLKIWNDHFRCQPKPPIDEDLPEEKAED
The experiment in a line: Rat A1 adenosine receptor binding assay, [3H]CHA displacement, rat brain membranes.
Method: (§3) Male Wistar rats (200-250 g) were decapitated and the whole brain and striatum dissected on ice. […] The homogenate was centrifuged at 48,000 for 10 min, and the pellet was resuspended in the same buffer containing 2 IU/mL adenosine deaminase. After 30 min incubation at 37° C., the membranes were centrifuged and pellets were stored at −80° C. Prior to freezing, an aliquot of homogenate was removed for protein assay with bovine albumin as reference standard. Binding assays were performed on rat brain and striatum membranes respectively, in the presence of 10 mM MgCl2 at 25° C.
(§4) Separation of bound from free radio ligand was performed by rapid filtration through Whatman GF/B filters which were washed three times with ice-cold buffer. Filter bound radioactivity was measured by scintillation spectrometry after addition of 5 mL of Aquassure. […] Ki values were calculated from the Cheng-Prusoff equation. All binding data were analyzed using the nonlinear regression curve-fitting computer program LIGAND.

For data set [2], the target named is T2, human recombinant A3 adenosine receptor (Homo sapiens, UniProt P0DMS8).
T2 sequence (P0DMS8 1-318): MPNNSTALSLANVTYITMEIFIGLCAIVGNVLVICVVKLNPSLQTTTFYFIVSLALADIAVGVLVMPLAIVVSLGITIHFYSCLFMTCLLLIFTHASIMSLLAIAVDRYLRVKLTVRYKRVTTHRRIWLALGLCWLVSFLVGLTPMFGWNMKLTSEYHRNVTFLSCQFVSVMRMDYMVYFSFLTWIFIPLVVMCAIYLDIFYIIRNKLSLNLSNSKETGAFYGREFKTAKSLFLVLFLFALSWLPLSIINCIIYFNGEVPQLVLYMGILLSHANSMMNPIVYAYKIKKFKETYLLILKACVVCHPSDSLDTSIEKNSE
Put plainly: Human cloned A3 adenosine receptor binding assay, [125I]AB-MECA, HEK-293 membranes. Also on record: USA; host or cells: HEK-293.

Data set [3] has as its target T3, rA2A adenosine receptor (Rattus norvegicus, UniProt P30543).
T3 construct: membranes of rat striatum (80-100 μmg of protein/assay); from tissue; host or cells: striatum of male Wistar rats
The experiment in a line: Rat A2A adenosine receptor binding assay, [3H]SCH58261 displacement, rat striatum membranes. The conditions noted are these: rat striatum membranes, [3H]SCH58261; read-out: rA2A (Ki).
Method: as §3, §4

For data set [4], the target named is T4, human recombinant A2B adenosine receptors (Homo sapiens, UniProt P29275).
T4 construct: host or cells: HEK-293
T4 sequence (P29275 1-332): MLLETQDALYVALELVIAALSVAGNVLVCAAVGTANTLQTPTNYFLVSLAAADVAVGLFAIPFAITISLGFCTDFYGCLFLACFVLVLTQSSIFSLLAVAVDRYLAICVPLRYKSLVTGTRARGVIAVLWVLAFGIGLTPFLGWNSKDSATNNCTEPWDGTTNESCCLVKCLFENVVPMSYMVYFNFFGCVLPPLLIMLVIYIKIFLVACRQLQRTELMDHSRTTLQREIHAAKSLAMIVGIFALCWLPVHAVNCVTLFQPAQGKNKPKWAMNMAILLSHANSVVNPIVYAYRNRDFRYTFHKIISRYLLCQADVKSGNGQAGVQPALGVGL
Put plainly: Human cloned A2B receptor binding, [3H]-DPCPX, HEK-293 cells. The conditions noted are these: read-out: hA2B (Ki). The method, then:
Binding of [^3H]-DPCPX to HEK-293 cells (Receptor Biology, Inc., Beltsville, Md.) transfected with the human recombinant A2B adenosine receptors is performed essentially to the method described by Varani and coworkers (Mol. Pharmacol.). In particular, assays are carried out for 60 min. at 25° C. in 0.1 mL of 50 mM Tris HCl Buffer, 10 mM MgCl2, 1 mM EDTA, 0.1 mM benzamidine pH 7.4, 2 IU/ml adenosine deaminase containing 40 nM [^3H]-DPCPX, diluted membranes (20 µg of protein/assay) and at least 6-8 different concentration of tested compounds. Non-specific binding is determined in the presence of 100 μM of NECA and is always 30% of the total binding.

Data set [5] concerns the target T5, human recombinant A2A adenosine receptors (Homo sapiens, UniProt P29274).
T5 construct: expressed in transfected cells; host or cells: CHO
The experiment in a line: Human cloned A2A receptor binding, [3H]-SCH58261, CHO cells. The conditions noted are these: read-out: hA2A (Ki). On the procedure:
(§1) The expression of the human A1, A2A, A2B and A3 receptors in CHO cells has been previously described (Klotz et al., 1998). The cells are grown adherently and maintained in Dulbecco's modified Eagle's medium with nutrient mixture F12 without nucleosides at 37 ° C. in 5% CO2/95% air. Cells are split two or three times weekly and then the culture medium is removed for membrane preparations. The cells are washed with phosphate-buffered saline and scraped off flasks in ice cold hypotonic buffer (5 mM Tris HCl, 2 mM EDTA, pH 7.4). The cell suspension is homogenized with Polytron and the homogenate is centrifuged for 30 min. at 48,000 g. The membrane pellet is re-suspended in 50 mM Tris HCl buffer at pH 7.4 for A1 adenosine receptors, in 50 mM Tris HCl, 10 mM MgCl2 at pH 7.4 for A2A adenosine receptors, in 50 mM Tris HCl, 10 mM MgCl2, 1 mM EDTA at pH 7.4 for A3 adenosine receptors and are utilized for binding and adenylate cyclase assays.
(§2) Displacement experiments are performed for 120 min. at 25° C. in 0.20 mL of buffer containing 1 nM [^3H]-DPCPX, 20 μL of diluted membranes (50 μg of protein/assay) and at least 6-8 different concentrations of examined compounds. Non-specific binding is determined in the presence of 10 μM of CHA and this is always 10% of the total binding. Binding of [^3H]-SCH58261 to CHO cells transfected with the human recombinant A2A adenosine receptors (50 μg of protein/assay) was performed according to Varani et al. (Varani, K; Cacciari, B.; Baraldi, P. G.; Dionisotti, S.; Ongini, E.; Borea, P. A., “Binding affinity of adenosine receptor agonists and antagonists at human cloned […] adenosine receptors,” Life Sci., 63, 81-87, 1998). In competition studies, at least 6-8 different concentrations of compounds are used and non-specific binding is determined in the presence of 50 μM NECA for an incubation time of 60 min. at 25° C.

Data set [6] has as its target T6, adenosine A3 receptor (Homo sapiens, UniProt P0DMS8).
T6 construct: expressed in transfected cells; host or cells: CHO
T6 sequence (P0DMS8 1-318): T2 sequence (P0DMS8 1-318)
The experiment in a line: Adenylate cyclase assay: block of agonist-induced inhibition of cAMP production. The data set is classed as biochemical. The conditions noted are these: FIG. 2, comparison in words. The method, then: as §1
Membrane preparation is suspended in 0.5 mL of incubation mixture (50 mM Tris HCl, MgCl2 10 mM, EDTA, 1 mM, pH 7.4) containing GTP 5 µM, 0.5 mM 4-(3-buthoxy-4-methoxybenzyl)-2-imidazolidinone (Ro 20-1274) as phosphodiesterase inhibitor, 2.0 IU/mL adenosine deaminase and pre-incubated for 10 min. in a shaking bath at 37° C. […]

Data set [7] has as its target T7, human recombinant A1 adenosine receptor (Homo sapiens, UniProt P30542).
T7 construct: expressed in transfected cells; host or cells: CHO
T7 sequence (P30542 1-326): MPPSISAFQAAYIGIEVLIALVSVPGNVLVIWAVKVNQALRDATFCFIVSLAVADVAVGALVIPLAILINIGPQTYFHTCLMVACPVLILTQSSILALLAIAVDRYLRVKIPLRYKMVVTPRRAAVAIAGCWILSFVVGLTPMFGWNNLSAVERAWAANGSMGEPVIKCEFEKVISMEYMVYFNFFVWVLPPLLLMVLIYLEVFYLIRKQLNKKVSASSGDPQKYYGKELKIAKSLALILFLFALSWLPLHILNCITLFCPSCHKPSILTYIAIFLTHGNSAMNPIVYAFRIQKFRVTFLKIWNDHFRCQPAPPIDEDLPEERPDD
The experiment in a line: Human cloned A1 receptor binding, [3H]-DPCPX, CHO cells. The conditions noted are these: read-out: hA1 (Ki). The method, then: as §1
Binding of [^3H]-DPCPX to CHO cells transfected with the human recombinant A1 adenosine receptor is performed according to the method previously described by Klotz and coworkers (Klotz, K. N.; Cristalli, G.; Grifantini, M.; Vittori, S.; Lohse, M. J., “Photoaffinity labeling of A1 adenosine receptors,” J. Biol. Chem., 260, 14659-14664, 1985).
as §2

A short description of data set [8]: Solubility in water. The data set is classed as physicochemical.
Data set [9] has as its target T8, adenosine A3 receptors in Jurkat cell membranes (Homo sapiens, UniProt P0DMS8).
T8 construct: endogenous in cells; host or cells: Jurkat (human T-cell leukaemia)
T8 sequence (P0DMS8 1-318): T2 sequence (P0DMS8 1-318)
The experiment in a line: Saturation binding of radioligand of Compound 108, Jurkat cell membranes.

The target of data set [10] is T9, adenosine A3 receptors in HL60 membranes (Homo sapiens, UniProt P0DMS8).
T9 construct: endogenous in cells; host or cells: HL60 (promyelocytic human leukaemia)
T9 sequence (P0DMS8 1-318): T2 sequence (P0DMS8 1-318)
Put plainly: Saturation binding of radioligand of Compound 108, HL60 membranes.

Like-named read-outs stand apart in the source and are kept apart here.

T5 sequence (P29274 whole entry): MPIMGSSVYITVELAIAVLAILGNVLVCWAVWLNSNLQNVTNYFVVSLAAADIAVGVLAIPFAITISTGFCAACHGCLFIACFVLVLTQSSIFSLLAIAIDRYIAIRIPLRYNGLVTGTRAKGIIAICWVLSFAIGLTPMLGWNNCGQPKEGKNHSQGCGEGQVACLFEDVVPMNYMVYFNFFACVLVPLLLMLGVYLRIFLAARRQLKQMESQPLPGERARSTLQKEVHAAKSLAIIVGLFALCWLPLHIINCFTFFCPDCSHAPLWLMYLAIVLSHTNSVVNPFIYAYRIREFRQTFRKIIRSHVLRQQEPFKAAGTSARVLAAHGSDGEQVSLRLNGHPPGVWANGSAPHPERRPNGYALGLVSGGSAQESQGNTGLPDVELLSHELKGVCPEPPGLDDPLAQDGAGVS
T3 sequence (P30543 whole entry): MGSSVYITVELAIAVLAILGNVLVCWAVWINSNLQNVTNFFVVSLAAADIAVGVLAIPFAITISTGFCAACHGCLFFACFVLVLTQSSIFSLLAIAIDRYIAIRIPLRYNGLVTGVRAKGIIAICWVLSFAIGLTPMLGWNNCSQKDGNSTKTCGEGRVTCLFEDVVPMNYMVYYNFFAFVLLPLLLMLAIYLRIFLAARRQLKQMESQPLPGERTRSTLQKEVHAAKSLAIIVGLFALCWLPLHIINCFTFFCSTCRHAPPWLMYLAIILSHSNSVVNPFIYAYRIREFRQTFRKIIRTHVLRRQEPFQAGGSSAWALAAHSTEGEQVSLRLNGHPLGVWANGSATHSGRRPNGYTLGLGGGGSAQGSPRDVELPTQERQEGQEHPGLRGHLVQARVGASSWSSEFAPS

The compound `CC(C)CCn1cc2c(nc(NC(=O)Cc3ccccc3)n3nc(-c4ccco4)nc23)n1` [Compound 58, 5-[(Benzyl)carbonyl]amino-8-isopentyl-2-(2-furyl)-pyrazolo[4,3.e]1,2,4-triazolo[1,5-c]pyrimidine] yielded a melting point of 144 to 145 °C. This compound came in with a Ki in data set [1] of 373 nM. Moreover, the Ki in [2] (HEK-293 membranes, [125I]AB-MECA, read-out: hA3 (Ki)) amounted to 81.1 nM. For the same compound, in data set [2] (selectivity ratio of Ki values), the rA1/hA3 is 4.6 and the rA2A/hA3 was 4. Also, in data set [3], the Ki is 323 nM.
With `Cn1cc2c(nc(NC(=O)Nc3ccncc3)n3nc(-c4ccco4)nc23)n1` [Compound 106, N-[2-(2-furyl)-8-methyl-8H-pyrazolo[4,3-e][1,2,4]triazolo[1,5-c]pyrimidin-5-yl]-N′-pyridin-4-yl urea], the Ki in [4] came to 200 nM; in [5], 60 nM; in data set [7], 250 nM. Also, the “potency of adenosine A3 antagonism (block of C1-IB-MECA induced inhibition of cAMP production)” value in [6] was “comparable”.
With `Cl.Cn1cc2c(nc(NC(=O)Nc3ccncc3)n3nc(-c4ccco4)nc23)n1` [Compound 107, N-[2-(2-furyl)-8-methyl-8H-pyrazolo[4,3-e][1,2,4]triazolo[1,5-c]pyrimidin-5-yl]-N′-pyridin-4-ylurea hydrochloride], the solubility in water entry in data set [8] was “soluble in water”. In addition, the results for the Ki in [4] (hydrochloride), in [5] (hydrochloride) and in data set [7] (hydrochloride) were 250 nM, 100 nM and 350 nM, respectively. Moreover, the “potency of adenosine A3 antagonism (block of C1-IB-MECA induced inhibition of cAMP production)” value in data set [6] is recorded as “comparable”.
In data set [9] (Jurkat cell membranes, FIG. 4, n=3), `[3H]CC([3H])Cn1cc2c(nc(NC(=O)Nc3ccc(OC)cc3)n3nc(-c4ccco4)nc23)n1` (stereo not shown) [radioligand of Compound 108, 5-[[(4-methoxyphenyl)amino]carbonyl]amino-8-(1,2-ditritiopropyl)-2-(2-furyl)-pyrazolo[4,3-e]1,2,4-triazolo[1,5-c]pyrimidine] had a Bmax value of 1.30±0.03 pmol/mg protein. Besides, the “A3 receptor density detected” value in data set [9] (Jurkat cells) is recorded as “approximately 1300 fmol/mg protein”. For the same compound, the “Bmax value / A3 receptor density detected” value in data set [10] (FIG. 5) is listed as 626±42 fmol/mg protein; in data set [10] (FIG. 5, listed as tritiated analogue of Compound 108), around 650 fmol/mg protein.
